Experimental data as given in patent US9073855B2, “BCL-2 selective apoptosis-inducing agents for the treatment of cancer and immune diseases” (AbbVie Inc., priority 2008, dated 2015).

Legend:
FL5.12/Bcl-2 cells = experiment: FL5.12/Bcl-2 cell viability assay under IL-3 withdrawal (CellTitre Glo); format: cell-based, murine; details: Mus musculus, IL-3 withdrawn 48 hrs, then 24 hrs with compound
How it was run: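 Viability measured with CellTiter-Glo after 24 h compound treatment at various concentrations, following 48 h IL-3 withdrawal (no WEHI-3B medium). Cells: prolymphocytic mouse FL5.12 line stably transfected to overexpress Bcl-2, cultured at 37 °C, 5% CO2.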

GST-Bcl-2 = GST-Bcl-2 (Homo sapiens, UniProt P10415); experiment: TR-FRET binding assay, GST-Bcl-2 with F-Bak peptide probe; details: TR-FRET Binding Affinity, GST-Bcl-2, F-Bak peptide probe
Chain of GST-Bcl-2 (P10415 whole entry): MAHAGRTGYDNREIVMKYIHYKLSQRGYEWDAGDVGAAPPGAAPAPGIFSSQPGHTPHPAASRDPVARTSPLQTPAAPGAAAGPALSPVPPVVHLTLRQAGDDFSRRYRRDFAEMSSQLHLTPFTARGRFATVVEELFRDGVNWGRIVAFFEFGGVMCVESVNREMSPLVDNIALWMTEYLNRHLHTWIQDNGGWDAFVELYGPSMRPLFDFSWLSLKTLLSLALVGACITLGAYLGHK
How it was run: (§1)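 Ki was derived with Wang's equation for competitive binding of two ligands. The read-out was time-resolved fluorescence after a 3 h room-temperature incubation, using a Tb-labelled antibody donor and the F-Bak peptide acceptor (excitation 340/35 nm). Test compounds entered as DMSO serial dilutions starting at 50 μM, which was the 2× concentration.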

GST-Bcl-XL = GST-Bcl-XL (Homo sapiens, UniProt Q07817); experiment: TR-FRET binding assay, GST-Bcl-XL with F-Bak peptide probe; details: TR-FRET Binding Affinity, GST-Bcl-XL, F-Bak peptide probe
Chain of GST-Bcl-XL (Q07817 whole entry): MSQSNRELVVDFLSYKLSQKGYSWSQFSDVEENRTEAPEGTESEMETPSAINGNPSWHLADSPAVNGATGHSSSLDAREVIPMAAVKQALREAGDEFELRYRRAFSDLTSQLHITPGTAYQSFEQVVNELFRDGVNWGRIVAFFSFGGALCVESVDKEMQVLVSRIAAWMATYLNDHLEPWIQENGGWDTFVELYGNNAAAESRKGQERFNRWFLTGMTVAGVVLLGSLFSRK
How it was run: as §1

In the case of `CC1(C)CCC(CN2CCN(c3ccc(C(=O)NS(=O)(=O)c4ccc(NCC(F)F)c([N+](=O)[O-])c4)c(Oc4ccc5[nH]ccc5c4)c3)CC2)=C(c2ccc(Cl)cc2)C1` [Example 302, 4-(4-{[2-(4-chlorophenyl)-4,4-dimethylcyclohex-1-en-1-yl]methyl}piperazin-1-yl)-N-({4-[(2,2-difluoroethyl)amino]-3-nitrophenyl}sulfonyl)-2-(1H-indol-5-yloxy)benzamide], the EC50 (FL5.12/Bcl-2 cells) is reported as 32.4 nM, the Ki (GST-Bcl-2) is reported as 0.504 nM and the Ki (GST-Bcl-XL) is reported as greater than 660 nM.

With `CC1(C)CCC(CN2CCN(c3ccc(C(=O)NS(=O)(=O)c4ccc(NCC5CCOCC5)c(S(=O)(=O)C(F)(F)F)c4)c(Oc4cccc5[nH]ccc45)c3)CC2)=C(c2ccc(Cl)cc2)C1` [Example 303, 4-(4-{[2-(4-chlorophenyl)-4,4-dimethylcyclohex-1-en-1-yl]methyl}piperazin-1-yl)-2-(1H-indol-4-yloxy)-N-({4-[(tetrahydro-2H-pyran-4-ylmethyl)amino]-3-[(trifluoromethyl)sulfonyl]phenyl}sulfonyl)benzamide] the EC50 (FL5.12/Bcl-2 cells) was greater than 500 nM, the Ki (GST-Bcl-2) was 1.48 nM and the Ki (GST-Bcl-XL) was greater than 660 nM.

`CC1(C)CCC(CN2CCN(c3ccc(C(=O)NS(=O)(=O)c4ccc(NC5CCC(F)(F)CC5)c([N+](=O)[O-])c4)c(Oc4ccc5[nH]ccc5c4)c3)CC2)=C(c2ccc(Cl)cc2)C1` [Example 305, 4-(4-{[2-(4-chlorophenyl)-4,4-dimethylcyclohex-1-en-1-yl]methyl}piperazin-1-yl)-N-({4-[(4,4-difluorocyclohexyl)amino]-3-nitrophenyl}sulfonyl)-2-(1H-indol-5-yloxy)benzamide] showed an EC50 (FL5.12/Bcl-2 cells) greater than 500 nM, a Ki (GST-Bcl-2) of 3.68 nM and a Ki (GST-Bcl-XL) greater than 660 nM.

Work on `CC1(C)CCC(CN2CCN(c3ccc(C(=O)NS(=O)(=O)c4ccc(OCC5(F)CCOCC5)c([N+](=O)[O-])c4)c(Oc4cccc5[nH]ccc45)c3)CC2)=C(c2ccc(Cl)cc2)C1` [Example 306, 4-(4-{[2-(4-chlorophenyl)-4,4-dimethylcyclohex-1-en-1-yl]methyl}piperazin-1-yl)-N-({4-[(4-fluorotetrahydro-2H-pyran-4-yl)methoxy]-3-nitrophenyl}sulfonyl)-2-(1H-indol-4-yloxy)benzamide] yielded an EC50 (FL5.12/Bcl-2 cells) of 7.16 nM, a Ki (GST-Bcl-2) of 0.077 nM and a Ki (GST-Bcl-XL) of 47.9 nM.

`CC(C)n1cc(CN2CCN(c3ccc(C(=O)NS(=O)(=O)c4ccc(NCC5CCOCC5)c([N+](=O)[O-])c4)c(Oc4ccc5[nH]ccc5c4)c3)CC2)c(-c2ccc(Cl)cc2)cc1=O` [Example 307, 4-(4-{[4-(4-chlorophenyl)-1-isopropyl-6-oxo-1,6-dihydropyridin-3-yl]methyl}piperazin-1-yl)-2-(1H-indol-5-yloxy)-N-({3-nitro-4-[(tetrahydro-2H-pyran-4-ylmethyl)amino]phenyl}sulfonyl)benzamide] gave an EC50 (FL5.12/Bcl-2 cells) greater than 500 nM, a Ki (GST-Bcl-2) of 3.73 nM and a Ki (GST-Bcl-XL) greater than 660 nM.

With `CC1(C)CCC(CN2CCN(c3ccc(C(=O)NS(=O)(=O)c4ccc(C(=O)NCC5CCOCC5)cc4)c(Oc4ccc5[nH]ccc5c4)c3)CC2)=C(c2ccc(Cl)cc2)C1` [Example 308, 4-(4-{[2-(4-chlorophenyl)-4,4-dimethylcyclohex-1-en-1-yl]methyl}piperazin-1-yl)-2-(1H-indol-5-yloxy)-N-[(4-{[(tetrahydro-2H-pyran-4-ylmethyl)amino]carbonyl}phenyl)sulfonyl]benzamide] the EC50 (FL5.12/Bcl-2 cells) was greater than 500 nM, the Ki (GST-Bcl-2) was 57.4 nM and the Ki (GST-Bcl-XL) was greater than 660 nM.

Work on `COCCNc1ccc(S(=O)(=O)NC(=O)c2ccc(N3CCN(CC4=C(c5ccc(Cl)cc5)CC(C)(C)CC4)CC3)cc2Oc2cccc3[nH]ccc23)cc1S(=O)(=O)C(F)(F)F` [Example 309, 4-(4-{[2-(4-chlorophenyl)-4,4-dimethylcyclohex-1-en-1-yl]methyl}piperazin-1-yl)-2-(1H-indol-4-yloxy)-N-({4-[(2-methoxyethyl)amino]-3-[(trifluoromethyl)sulfonyl]phenyl}sulfonyl)benzamide] yielded an EC50 (FL5.12/Bcl-2 cells) greater than 500 nM, a Ki (GST-Bcl-2) of 4.42 nM and a Ki (GST-Bcl-XL) greater than 660 nM.

`CC1(C)CCC(CN2CCN(c3ccc(C(=O)NS(=O)(=O)c4ccc(NC[C@H]5CC[C@H](O)CC5)c([N+](=O)[O-])c4)c(Oc4ccc5[nH]ccc5c4)c3)CC2)=C(c2ccc(Cl)cc2)C1` [Example 310, Trans-4-(4-{[2-(4-chlorophenyl)-4,4-dimethylcyclohex-1-en-1-yl]methyl}piperazin-1-yl)-N-[(4-{[(4-hydroxycyclohexyl)methyl]amino}-3-nitrophenyl)sulfonyl]-2-(1H-indol-5-yloxy)benzamide] showed an EC50 (FL5.12/Bcl-2 cells) of 4.51 nM, a Ki (GST-Bcl-2) of 0.049 nM and a Ki (GST-Bcl-XL) greater than 660 nM.

For `CO[C@H]1CC[C@H](CNc2ccc(S(=O)(=O)NC(=O)c3ccc(N4CCN(CC5=C(c6ccc(Cl)cc6)CC(C)(C)CC5)CC4)cc3Oc3ccc4[nH]ccc4c3)cc2[N+](=O)[O-])CC1` [Example 311, Trans-4-(4-{[2-(4-chlorophenyl)-4,4-dimethylcyclohex-1-en-1-yl]methyl}piperazin-1-yl)-2-(1H-indol-5-yloxy)-N-[(4-{[(4-methoxycyclohexyl)methyl]amino}-3-nitrophenyl)sulfonyl]benzamide], the EC50 (FL5.12/Bcl-2 cells) was 33.4 nM, the Ki (GST-Bcl-2) was 0.26 nM and the Ki (GST-Bcl-XL) was greater than 660 nM.

With `CC1(C)CCC(CN2CCN(c3ccc(C(=O)NS(=O)(=O)c4ccc(NC[C@H]5CC[C@@H](O)CC5)c([N+](=O)[O-])c4)c(Oc4ccc5[nH]ccc5c4)c3)CC2)=C(c2ccc(Cl)cc2)C1` [Example 312, Cis-4-(4-{[2-(4-chlorophenyl)-4,4-dimethylcyclohex-1-en-1-yl]methyl}piperazin-1-yl)-N-[(4-{[(4-hydroxycyclohexyl)methyl]amino}-3-nitrophenyl)sulfonyl]-2-(1H-indol-5-yloxy)benzamide] the EC50 (FL5.12/Bcl-2 cells) was 19.2 nM, the Ki (GST-Bcl-2) was 0.34 nM and the Ki (GST-Bcl-XL) was greater than 660 nM.

`CO[C@H]1CC[C@@H](CNc2ccc(S(=O)(=O)NC(=O)c3ccc(N4CCN(CC5=C(c6ccc(Cl)cc6)CC(C)(C)CC5)CC4)cc3Oc3ccc4[nH]ccc4c3)cc2[N+](=O)[O-])CC1` [Example 313, Cis-4-(4-{[2-(4-chlorophenyl)-4,4-dimethylcyclohex-1-en-1-yl]methyl}piperazin-1-yl)-2-(1H-indol-5-yloxy)-N-[(4-{[(4-methoxycyclohexyl)methyl]amino}-3-nitrophenyl)sulfonyl]benzamide] was tested, and the EC50 (FL5.12/Bcl-2 cells) was 82.9 nM, the Ki (GST-Bcl-2) was 0.044 nM and the Ki (GST-Bcl-XL) was 66 nM.

With `CC1(C)CCC(CN2CCN(c3ccc(C(=O)NS(=O)(=O)c4ccc(OCCC5CCOCC5)c([N+](=O)[O-])c4)c(Oc4cccc5[nH]ccc45)c3)CC2)=C(c2ccc(Cl)cc2)C1` [Example 314, 4-(4-{[2-(4-chlorophenyl)-4,4-dimethylcyclohex-1-en-1-yl]methyl}piperazin-1-yl)-2-(1H-indol-4-yloxy)-N-{[3-nitro-4-(2-tetrahydro-2H-pyran-4-ylethoxy)phenyl]sulfonyl}benzamide] the EC50 (FL5.12/Bcl-2 cells) was 240 nM, the Ki (GST-Bcl-2) was 3.07 nM and the Ki (GST-Bcl-XL) was greater than 660 nM.

Molecule `CC1(C)CCC(CN2CCN(c3ccc(C(=O)NS(=O)(=O)c4ccc(OCCCS(C)(=O)=O)c([N+](=O)[O-])c4)c(Oc4cccc5[nH]ccc45)c3)CC2)=C(c2ccc(Cl)cc2)C1` [Example 316, 4-(4-{[2-(4-chlorophenyl)-4,4-dimethylcyclohex-1-en-1-yl]methyl}piperazin-1-yl)-2-(1H-indol-4-yloxy)-N-({4-[3-(methylsulfonyl)propoxy]-3-nitrophenyl}sulfonyl)benzamide] has an EC50 (FL5.12/Bcl-2 cells) of 67.5 nM, a Ki (GST-Bcl-2) of 0.149 nM and a Ki (GST-Bcl-XL) of 79.5 nM.

`COCCCNc1ccc(S(=O)(=O)NC(=O)c2ccc(N3CCN(CC4=C(c5ccc(Cl)cc5)CC(C)(C)CC4)CC3)cc2Oc2ccc3[nH]ccc3c2)cc1[N+](=O)[O-]` [Example 317, 4-(4-{[2-(4-chlorophenyl)-4,4-dimethylcyclohex-1-en-1-yl]methyl}piperazin-1-yl)-2-(1H-indol-5-yloxy)-N-({4-[(3-methoxypropyl)amino]-3-nitrophenyl}sulfonyl)benzamide] gave an EC50 (FL5.12/Bcl-2 cells) of 83.1 nM, a Ki (GST-Bcl-2) of 2.8 nM and a Ki (GST-Bcl-XL) greater than 660 nM.

Molecule `COCCCNc1ccc(S(=O)(=O)NC(=O)c2ccc(N3CCN(CC4=C(c5ccc(Cl)cc5)CC(C)(C)CC4)CC3)cc2Oc2cccc3[nH]ccc23)cc1[N+](=O)[O-]` [Example 318, 4-(4-{[2-(4-chlorophenyl)-4,4-dimethylcyclohex-1-en-1-yl]methyl}piperazin-1-yl)-2-(1H-indol-4-yloxy)-N-({4-[(3-methoxypropyl)amino]-3-nitrophenyl}sulfonyl)benzamide] has an EC50 (FL5.12/Bcl-2 cells) of 77 nM, a Ki (GST-Bcl-2) of 1.47 nM and a Ki (GST-Bcl-XL) of 151 nM.

`CC1(C)CCC(CN2CCN(c3ccc(C(=O)NS(=O)(=O)c4ccc(NCCC#N)c([N+](=O)[O-])c4)c(Oc4ccc5[nH]ccc5c4)c3)CC2)=C(c2ccc(Cl)cc2)C1` [Example 319, 4-(4-{[2-(4-chlorophenyl)-4,4-dimethylcyclohex-1-en-1-yl]methyl}piperazin-1-yl)-N-({4-[(2-cyanoethyl)amino]-3-nitrophenyl}sulfonyl)-2-(1H-indol-5-yloxy)benzamide] was tested, and the EC50 (FL5.12/Bcl-2 cells) was 31.4 nM, the Ki (GST-Bcl-2) was 0.413 nM and the Ki (GST-Bcl-XL) was 208 nM.

`CC1(C)CCC(CN2CCN(c3ccc(C(=O)NS(=O)(=O)c4ccc(NCCC#N)c([N+](=O)[O-])c4)c(Oc4cccc5[nH]ccc45)c3)CC2)=C(c2ccc(Cl)cc2)C1` [Example 320, 4-(4-{[2-(4-chlorophenyl)-4,4-dimethylcyclohex-1-en-1-yl]methyl}piperazin-1-yl)-N-({4-[(2-cyanoethyl)amino]-3-nitrophenyl}sulfonyl)-2-(1H-indol-4-yloxy)benzamide] showed an EC50 (FL5.12/Bcl-2 cells) of 41.6 nM, a Ki (GST-Bcl-2) of 1.24 nM and a Ki (GST-Bcl-XL) of 129 nM.
